Assay [1] deals with human Gal-3 (hGal-3) (Homo sapiens (Human), UniProt P17931). The assay can be described thus: Competitive binding assay: binding of biotinylated hGal-3 to microplate-adsorbed asialofetuin (ASF). Particulars: Activity on hGal-3; mean values of several measurements. In short, it runs like this:
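Biotinylated hGal-3 (300-1000 ng/mL) bound to ASF-coated wells with serially diluted compound, 3 h at 4° C. After washing, bound protein was detected with streptavidin-peroxidase (80 ng/mL, 1 h, 4° C) and ABTS substrate; IC50 values are means of several measurements.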

The target of assay [2] is human Gal-1 (hGal-1). As to the kind of experiment: Competitive binding assay: binding of biotinylated hGal-1 to microplate-adsorbed asialofetuin (ASF). Particulars: Activities on hGal-1; mean values of several measurements. In short, it runs like this: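 Biotin-hGal-3/hGal-1 300-1000 ng/mL + cpd (DMSO dilutions) on ASF-coated plate, 3 h 4° C; wash; SA-HRP 80 ng/mL 1 h 4° C; wash; ABTS. IC50 = mean of several runs. hGal-1 preferably Cys→Ser (all six) mutant.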
Sequence of human Gal-1 (hGal-1) (P09382 2-135 limits assumed): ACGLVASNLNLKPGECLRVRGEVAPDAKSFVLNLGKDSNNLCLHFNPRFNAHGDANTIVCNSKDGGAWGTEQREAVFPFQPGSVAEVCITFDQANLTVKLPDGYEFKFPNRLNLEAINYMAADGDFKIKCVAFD

Molecules are shown by their SMILES.

Sequence of human Gal-3 (hGal-3) (P17931 whole entry): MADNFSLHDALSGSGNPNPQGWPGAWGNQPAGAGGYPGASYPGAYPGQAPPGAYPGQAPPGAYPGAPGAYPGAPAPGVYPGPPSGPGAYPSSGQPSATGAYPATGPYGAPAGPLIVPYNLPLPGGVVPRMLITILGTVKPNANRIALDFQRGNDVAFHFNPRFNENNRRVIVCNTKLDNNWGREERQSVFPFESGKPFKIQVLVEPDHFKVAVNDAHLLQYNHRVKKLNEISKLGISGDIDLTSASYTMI

For `CO[C@@H]1[C@@H](n2cc(-c3cc(F)c(C#N)c(F)c3)nn2)[C@@H](O)[C@@H](CO)O[C@@H]1CC1CC(C2CCN(C(=O)OC(C)(C)C)CC2)=NO1` (stereo partly drawn) [Ex 1.223], the half-inhibitory concentration (IC50) (commonly the concentration needed to halve the response being measured) in assay [1] was 380 nM; in assay [2], 16700 nM.

As for `CO[C@@H]1[C@@H](n2cc(-c3ccc(C)c(F)c3F)nn2)[C@@H](O)[C@@H](CO)O[C@@H]1Cc1cc(C2CCC2)on1` [Ex 1.224], the IC50 in assay [1] is 70 nM; in assay [2], 14100 nM.

Take `CO[C@@H]1[C@@H](n2cc(-c3cc(F)c(F)c(F)c3)nn2)[C@@H](O)[C@@H](CO)O[C@@H]1Cc1cc(C2(O)CCC2)on1` [Ex 1.225]: the concentration for half-maximal inhibition (IC50) in assay [1] turned out to be 530 nM; in assay [2], 4850 nM.

As to `CO[C@@H]1[C@@H](n2cc(-c3ccc(F)c(F)c3F)nn2)[C@@H](O)[C@@H](CO)O[C@@H]1Cc1cc(C2CCC2)on1` [Ex 1.226], the IC50 was determined as 130 nM in assay [1] and 1190 nM in assay [2].

As to `CO[C@@H]1[C@@H](n2cc(-c3ccc(Cl)c(F)c3F)nn2)[C@@H](O)[C@@H](CO)O[C@@H]1Cc1cc(C2CCC2)on1` [Ex 1.227], the IC50 amounted to 77 nM in assay [1] and 16600 nM in assay [2].

With `CO[C@@H]1[C@@H](n2cc(-c3cccc(F)c3)nn2)[C@@H](O)[C@@H](CO)O[C@@H]1Cc1cc(C2CCN(C(=O)OC(C)(C)C)CC2)on1` [Ex 1.228], the values for the concentration for half-maximal inhibition (IC50) in assay [1] and in assay [2] were 200 nM and 790 nM, respectively.

With `CO[C@@H]1[C@@H](n2cc(-c3ccc(C)c(F)c3F)nn2)[C@@H](O)[C@@H](CO)O[C@@H]1Cc1cc(-c2ccc(F)c(F)c2F)on1` [Ex 1.229], the IC50 is 530 nM in assay [1] and above 100000 nM in assay [2].

As for `CO[C@@H]1[C@@H](n2cc(-c3ccc(Cl)c(F)c3F)nn2)[C@@H](O)[C@@H](CO)O[C@@H]1Cc1cc(-c2ccc(F)c(F)c2F)on1` [Ex 1.231], the half-inhibitory concentration (IC50) in assay [1] was 910 nM; in assay [2], above 100000 nM.

In the case of `CO[C@@H]1[C@@H](n2cc(-c3ccc(F)c(F)c3F)nn2)[C@@H](O)[C@@H](CO)O[C@@H]1Cc1cc(C(C)(C)O)on1` [Ex 1.232], the IC50 in assay [1] turned out to be 100 nM; in assay [2], 970 nM.

On to `CO[C@@H]1[C@@H](n2cc(-c3ccc(F)c(F)c3F)nn2)[C@@H](O)[C@@H](CO)O[C@@H]1Cc1cc(C2(O)CCCCC2)on1` [Ex 1.233], for which the half-maximal inhibitory concentration (IC50) in assay [1] worked out at 88 nM; in assay [2] it was 1330 nM.

`CO[C@@H]1[C@@H](n2cc(-c3ccc(F)c(F)c3F)nn2)[C@@H](O)[C@@H](CO)O[C@@H]1Cc1cc(C2(O)CCCC2)on1` [Ex 1.234]: the concentration for half-maximal inhibition (IC50) is 57 nM in assay [1] and 1270 nM in assay [2].

For `CO[C@@H]1[C@@H](n2cc(-c3ccc(F)c(F)c3F)nn2)[C@@H](O)[C@@H](CO)O[C@@H]1Cc1cc(C2CCCC2)on1` [Ex 1.235], the values for the IC50 in assay [1] and in assay [2] were 100 nM and 1330 nM, respectively.

On to `CO[C@@H]1[C@@H](n2cc(-c3ccc(F)c(F)c3F)nn2)[C@@H](O)[C@@H](CO)O[C@@H]1Cc1cc(C2(O)CCC2)on1` [Ex 1.236], for which the values for the IC50 in assay [1] and in assay [2] were 57 nM and 960 nM, respectively.

Regarding `CO[C@@H]1[C@@H](n2cc(-c3ccc(C)c(F)c3F)nn2)[C@@H](O)[C@@H](CO)O[C@@H]1Cc1cc(C(C)(C)O)on1` [Ex 1.237], the IC50 in assay [1] came out at 75 nM; in assay [2], 4220 nM.

On to `CO[C@@H]1[C@@H](n2cc(-c3ccc(C)c(F)c3F)nn2)[C@@H](O)[C@@H](CO)O[C@@H]1Cc1cc(C2(O)CCCCC2)on1` [Ex 1.238], for which the half-inhibitory concentration (IC50) in assay [1] is 45 nM; in assay [2] it was 3740 nM.

As for `CO[C@@H]1[C@@H](n2cc(-c3ccc(C)c(F)c3F)nn2)[C@@H](O)[C@@H](CO)O[C@@H]1Cc1cc(C2(O)CCCC2)on1` [Ex 1.239], the values for the concentration for half-maximal inhibition (IC50) in assay [1] and in assay [2] were 72 nM and 6440 nM, respectively.

Consider `CO[C@@H]1[C@@H](n2cc(-c3ccc(C)c(F)c3F)nn2)[C@@H](O)[C@@H](CO)O[C@@H]1Cc1cc(C2CCCC2)on1` [Ex 1.240], for which the IC50 in assay [1] worked out at 100 nM; in assay [2] it was 13900 nM.

Turning to `CO[C@@H]1[C@@H](n2cc(-c3ccc(C)c(F)c3F)nn2)[C@@H](O)[C@@H](CO)O[C@@H]1Cc1cc(C2(O)CCC2)on1` [Ex 1.241], the results for the IC50 in assay [1] and in assay [2] were 79 nM and 2580 nM, respectively.

Turning to `CO[C@@H]1[C@@H](n2cc(-c3ccc(Cl)c(F)c3F)nn2)[C@@H](O)[C@@H](CO)O[C@@H]1Cc1cc(C(C)(C)O)on1` [Ex 1.242], the concentration for half-maximal inhibition (IC50) in assay [1] is 68 nM; in assay [2], 2900 nM.

For `CO[C@@H]1[C@@H](n2cc(-c3ccc(Cl)c(F)c3F)nn2)[C@@H](O)[C@@H](CO)O[C@@H]1Cc1cc(C2(O)CCCCC2)on1` [Ex 1.243], the 50% inhibitory concentration (IC50) stood at 42 nM in assay [1] and 1330 nM in assay [2].

On to `CO[C@@H]1[C@@H](n2cc(-c3ccc(Cl)c(F)c3F)nn2)[C@@H](O)[C@@H](CO)O[C@@H]1Cc1cc(C2(O)CCCC2)on1` [Ex 1.244], for which the IC50 was found to be 110 nM in assay [1] and 3290 nM in assay [2].

With `CO[C@@H]1[C@@H](n2cc(-c3ccc(Cl)c(F)c3F)nn2)[C@@H](O)[C@@H](CO)O[C@@H]1Cc1cc(C2CCCC2)on1` [Ex 1.245], the IC50 in assay [1] stood at 67 nM; in assay [2], 1860 nM.

`CO[C@@H]1[C@@H](n2cc(-c3ccc(Cl)c(F)c3F)nn2)[C@@H](O)[C@@H](CO)O[C@@H]1Cc1cc(C2(O)CCC2)on1` [Ex 1.246]: the IC50 in assay [1] was 73 nM; in assay [2], 1720 nM.

Regarding `CO[C@@H]1[C@@H](n2cc(-c3cc(F)c(C)cc3F)nn2)[C@@H](O)[C@@H](CO)O[C@@H]1Cc1cc(C(C)(C)C)on1` [Ex 1.247], the half-inhibitory concentration (IC50) in assay [1] turned out to be 210 nM; in assay [2] it was 2290 nM.

For `CO[C@@H]1[C@@H](n2cc(-c3cc(F)c(C)cc3F)nn2)[C@@H](O)[C@@H](CO)O[C@@H]1Cc1cc(C2CCCCC2)on1` [Ex 1.248], the IC50 in assay [1] was 700 nM; in assay [2] it was above 100000 nM.

`CO[C@@H]1[C@@H](n2cc(-c3ccc(Br)c(F)c3)nn2)[C@@H](O)[C@@H](CO)O[C@@H]1Cc1cc(C2CCN(C(=O)OC(C)(C)C)CC2)on1` [Ex 1.249]: the IC50 in assay [1] worked out at 150 nM; in assay [2], 1780 nM.

In the case of `CO[C@@H]1[C@@H](n2cc(-c3ccc(F)c(F)c3F)nn2)[C@@H](O)[C@@H](CO)O[C@@H]1Cc1cc(C(C)(C)C)no1` [Ex 1.250], the concentration for half-maximal inhibition (IC50) in assay [1] is 57 nM; in assay [2], 250 nM.

For `CO[C@@H]1[C@@H](n2cc(-c3ccc(F)c(F)c3F)nn2)[C@@H](O)[C@@H](CO)O[C@@H]1Cc1cc(C2(C)CC2)no1` [Ex 1.251], the half-maximal inhibitory concentration (IC50) is 44 nM in assay [1] and 360 nM in assay [2].

As for `CO[C@@H]1[C@@H](n2cc(-c3ccc(F)c(F)c3F)nn2)[C@@H](O)[C@@H](CO)O[C@@H]1Cc1cc(C2(C)COC2)no1` [Ex 1.252], the 50% inhibitory concentration (IC50) turned out to be 69 nM in assay [1] and 280 nM in assay [2].

For `CO[C@@H]1[C@@H](n2cc(-c3ccc(F)c(F)c3F)nn2)[C@@H](O)[C@@H](CO)O[C@@H]1Cc1cc(C(C)(C)CO)no1` [Ex 1.253], the 50% inhibitory concentration (IC50) in assay [1] is 58 nM; in assay [2] it was 280 nM.

In the case of `CO[C@@H]1[C@@H](n2cc(-c3ccc(C)c(F)c3F)nn2)[C@@H](O)[C@@H](CO)O[C@@H]1Cc1cc(C(C)(C)C)no1` [Ex 1.254], the IC50 in assay [1] came out at 31 nM; in assay [2] it was 1110 nM.

Consider `CO[C@@H]1[C@@H](n2cc(-c3ccc(C)c(F)c3F)nn2)[C@@H](O)[C@@H](CO)O[C@@H]1Cc1cc(C2(C)CC2)no1` [Ex 1.255], for which the IC50 in assay [1] is 32 nM; in assay [2], 2060 nM.

For the compound `CO[C@@H]1[C@@H](n2cc(-c3ccc(C)c(F)c3F)nn2)[C@@H](O)[C@@H](CO)O[C@@H]1Cc1cc(C2(C)COC2)no1` [Ex 1.256], the IC50 was 55 nM in assay [1] and 1560 nM in assay [2].

In the case of `CO[C@@H]1[C@@H](n2cc(-c3ccc(C)c(F)c3F)nn2)[C@@H](O)[C@@H](CO)O[C@@H]1Cc1cc(C(C)(C)CO)no1` [Ex 1.257], the IC50 in assay [1] turned out to be 44 nM; in assay [2], 1780 nM.

For the compound `CO[C@@H]1[C@@H](n2cc(-c3ccc(Cl)c(F)c3F)nn2)[C@@H](O)[C@@H](CO)O[C@@H]1Cc1cc(C(C)(C)C)no1` [Ex 1.258], the IC50 in assay [1] came to 37 nM; in assay [2] it was 980 nM.

On to `CO[C@@H]1[C@@H](n2cc(-c3ccc(Cl)c(F)c3F)nn2)[C@@H](O)[C@@H](CO)O[C@@H]1Cc1cc(C2(C)CC2)no1` [Ex 1.259], for which the 50% inhibitory concentration (IC50) in assay [1] amounted to 33 nM; in assay [2] it was 620 nM.

Regarding `CO[C@@H]1[C@@H](n2cc(-c3ccc(Cl)c(F)c3F)nn2)[C@@H](O)[C@@H](CO)O[C@@H]1Cc1cc(C2(C)COC2)no1` [Ex 1.260], the half-inhibitory concentration (IC50) in assay [1] was 63 nM; in assay [2], 1410 nM.

In the case of `CO[C@@H]1[C@@H](n2cc(-c3ccc(Cl)c(F)c3F)nn2)[C@@H](O)[C@@H](CO)O[C@@H]1Cc1cc(C(C)(C)CO)no1` [Ex 1.261], the results for the IC50 in assay [1] and in assay [2] were 42 nM and 1050 nM, respectively.

Consider `CO[C@@H]1[C@@H](n2cc(-c3ccc(F)c(F)c3F)nn2)[C@@H](O)[C@@H](CO)O[C@@H]1Cc1cc(C(C)(CO)CCl)no1` (stereo partly drawn) [Ex 1.262], for which the IC50 in assay [1] was found to be 70 nM; in assay [2], 330 nM.

Regarding `CO[C@@H]1[C@@H](n2cc(-c3ccc(C)c(F)c3F)nn2)[C@@H](O)[C@@H](CO)O[C@@H]1Cc1cc(C(C)(CO)CCl)no1` (stereo partly drawn) [Ex 1.263], the values for the concentration for half-maximal inhibition (IC50) in assay [1] and in assay [2] were 58 nM and 1030 nM, respectively.

For the compound `CO[C@@H]1[C@@H](n2cc(-c3ccc(Cl)c(F)c3F)nn2)[C@@H](O)[C@@H](CO)O[C@@H]1Cc1cc(C(C)(CO)CCl)no1` (stereo partly drawn) [Ex 1.264], the IC50 was 71 nM in assay [1] and 1610 nM in assay [2].

Turning to `CO[C@@H]1[C@@H](n2cc(-c3cc(F)c(F)c(F)c3)nn2)[C@@H](O)[C@@H](CO)O[C@@H]1CC1CC(C(C)(C)C)=NO1` (stereo partly drawn) [Ex 1.265], the figures for the IC50 in assay [1] and in assay [2] were 250 nM and 2580 nM, respectively.

The record behind these values is US12319672B2, “Alpha-D-galactopyranoside derivatives” (Idorsia Pharmaceuticals Ltd, priority 2019, dated 2025).
